# Molecular target: T1, SIRT1 (Homo sapiens, UniProt Q96EB6)
# T1 sequence (Q96EB6 1-747): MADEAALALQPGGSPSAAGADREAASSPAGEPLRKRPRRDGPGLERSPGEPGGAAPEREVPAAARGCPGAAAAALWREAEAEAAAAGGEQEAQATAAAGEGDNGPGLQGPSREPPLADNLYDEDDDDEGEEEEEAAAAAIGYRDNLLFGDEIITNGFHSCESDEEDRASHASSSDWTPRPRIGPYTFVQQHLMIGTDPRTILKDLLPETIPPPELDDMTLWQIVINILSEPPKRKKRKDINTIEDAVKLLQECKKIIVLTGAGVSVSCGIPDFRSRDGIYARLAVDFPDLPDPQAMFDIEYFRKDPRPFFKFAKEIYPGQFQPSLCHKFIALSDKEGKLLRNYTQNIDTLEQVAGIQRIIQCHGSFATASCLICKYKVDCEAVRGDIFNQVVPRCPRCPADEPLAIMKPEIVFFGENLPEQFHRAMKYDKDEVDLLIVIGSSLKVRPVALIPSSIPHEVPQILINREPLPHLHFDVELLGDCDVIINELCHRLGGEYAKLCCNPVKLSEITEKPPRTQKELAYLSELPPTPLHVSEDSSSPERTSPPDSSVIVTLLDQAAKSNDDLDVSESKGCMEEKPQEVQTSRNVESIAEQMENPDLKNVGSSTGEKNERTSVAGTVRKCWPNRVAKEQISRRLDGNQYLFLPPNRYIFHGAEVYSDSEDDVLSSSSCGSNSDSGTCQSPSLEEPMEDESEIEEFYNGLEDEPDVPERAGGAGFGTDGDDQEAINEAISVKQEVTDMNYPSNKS
# Test: Mass spectrometry based assay to identify modulators of SIRT1 activity (deacetylation of p53-based acetylated peptide substrate)
# Type: biochemical
# Details: 10 nM SIRT1, 0.5 μM peptide substrate, 120 μM βNAD+, 25 minutes at 25° C.; for EC1.5: SIRT1 activation
# Summary of the method: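 Activation measured on His-tagged SIRT1 (10 nM, E. coli-expressed) deacetylating a 0.5 μM p53-derived acetyl-peptide with 120 μM βNAD^+ for 25 min at 25 °C, pH 8 Tris-acetate. After formic acid stop, mass spectrometry quantified acetylated versus deacetylated peptide, referenced to DMSO and nicotinamide controls. Reported as EC1.5 and maximum fold activation.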
Compound,FOLD ACT. (percent maximum fold activation),EC1.5
CC(C)N1CCN(c2cc(C(=O)Nc3ccccc3-c3nc4cccnc4s3)nc(-c3ccccc3)c2)CC1 [Compound 123],A (Fold activation≧300%),A′ (EC1.5<250 nM)
COCCN1CCN(c2cc(C(=O)Nc3ccccc3-c3nc4cccnc4s3)nc(-c3ccccc3)c2)CC1 [Compound 124],A (Fold activation≧300%),A′ (EC1.5<250 nM)
CC(C)(C)N1CCC(Nc2cc(C(=O)Nc3ccccc3-c3nc4cccnc4s3)nc(-c3ccccc3)n2)CC1 [Compound 125],A (Fold activation≧300%),A′ (EC1.5<250 nM)
O=C(Nc1ccccc1-c1nc2cccnc2s1)c1cc(OC[C@H](O)CO)cc(-c2ccccc2)n1 [Compound 126],A (Fold activation≧300%),A′ (EC1.5<250 nM)
O=C(Nc1ccccc1-c1nc2cccnc2s1)c1cc(OC[C@@H](O)CO)cc(-c2ccccc2)n1 [Compound 127],A (Fold activation≧300%),A (EC1.5≧250 nM and ≦1 uM)
O=C(Nc1ccccc1-c1nc2cccnc2s1)c1cc(NC(CO)CO)cc(-c2ccccc2)n1 [Compound 128],A (Fold activation≧300%),A′ (EC1.5<250 nM)
O=C(Nc1ccccc1-c1nc2cccnc2s1)c1cc(N2CCOCC2)cc(-c2ccccc2)n1 [Compound 129],A (Fold activation≧300%),A′ (EC1.5<250 nM)
COCCN(CCOC)c1cc(C(=O)Nc2ccccc2-c2nc3cccnc3s2)nc(-c2ccccc2)c1 [Compound 130],A (Fold activation≧300%),A′ (EC1.5<250 nM)
COCCNc1cc(C(=O)Nc2ccccc2-c2nc3cccnc3s2)nc(-c2ccccc2)c1 [Compound 131],A (Fold activation≧300%),A′ (EC1.5<250 nM)
Cc1cccc(-c2nc(NCCN3CCCCC3)cc(C(=O)Nc3ccccc3-c3nc4cccnc4s3)n2)c1 [Compound 132],A (Fold activation≧300%),A′ (EC1.5<250 nM)
Cc1cccc(-c2nc(NCCN3CCOCC3)cc(C(=O)Nc3ccccc3-c3nc4cccnc4s3)n2)c1 [Compound 133],A (Fold activation≧300%),A′ (EC1.5<250 nM)
Cc1cccc(-c2nc(NC(CO)CO)cc(C(=O)Nc3ccccc3-c3nc4cccnc4s3)n2)c1 [Compound 134],A (Fold activation≧300%),A′ (EC1.5<250 nM)
CS(=O)(=O)N1CCC(Nc2cc(C(=O)Nc3ccccc3-c3nc4cccnc4s3)nc(-c3ccccc3)n2)CC1 [Compound 135],A (Fold activation≧300%),A′ (EC1.5<250 nM)
O=C(Nc1ccccc1-c1nc2cccnc2s1)c1cc(NC2CCN(C(=O)c3ccccc3)CC2)nc(-c2ccccc2)n1 [Compound 136],B (Fold Activation≧150% and <300%),A (EC1.5≧250 nM and ≦1 uM)
COCCN(C)c1cc(C(=O)Nc2ccccc2-c2nc3cccnc3s2)nc(-c2ccccc2)c1 [Compound 137],A (Fold activation≧300%),A′ (EC1.5<250 nM)
Cc1cccc(-c2nc(C(=O)Nc3ccccc3-c3nc4cccnc4s3)cc(N3CCN(C(C)C)CC3)n2)c1 [Compound 138],A (Fold activation≧300%),A′ (EC1.5<250 nM)

Compound,FOLD ACT. (percent maximum fold activation),EC1.5
Cc1cccc(-c2nc(C(=O)Nc3ccccc3-c3nc4cccnc4s3)cc(N3CCNCC3)n2)c1 [Compound 139],A (Fold activation≧300%),A′ (EC1.5<250 nM)
CC(C)CN1CCC(Nc2cc(C(=O)Nc3ccccc3-c3nc4cccnc4s3)nc(-c3ccccc3)n2)CC1 [Compound 140],A (Fold activation≧300%),A′ (EC1.5<250 nM)
O=C(Nc1ccccc1-c1nc2cccnc2s1)c1cc(NCCCn2ccnc2)cc(-c2ccccc2)n1 [Compound 141],A (Fold activation≧300%),A′ (EC1.5<250 nM)
Cc1cccc(-c2nc(OC[C@@H](O)CO)cc(C(=O)Nc3ccccc3-c3nc4cccnc4s3)n2)c1 [Compound 142],A (Fold activation≧300%),A (EC1.5≧250 nM and ≦1 uM)
COCCN(CCOC)c1cc(C(=O)Nc2ccccc2-c2nc3cccnc3s2)nc(-c2cccc(C)c2)n1 [Compound 143],A (Fold activation≧300%),A′ (EC1.5<250 nM)
O=C(Nc1ccccc1-c1nc2cccnc2s1)c1cc(N2CCN3CCC[C@H]3C2)cc(-c2ccccc2)n1 [Compound 144],A (Fold activation≧300%),A′ (EC1.5<250 nM)
CN(C)CCN(C)c1cc(C(=O)Nc2ccccc2-c2nc3cccnc3s2)nc(-c2ccccc2)n1 [Compound 145],A (Fold activation≧300%),A′ (EC1.5<250 nM)
CCN(CCN(C)C)c1cc(C(=O)Nc2ccccc2-c2nc3cccnc3s2)nc(-c2ccccc2)n1 [Compound 146],A (Fold activation≧300%),A′ (EC1.5<250 nM)
CNCCN(C)c1cc(C(=O)Nc2ccccc2-c2nc3cccnc3s2)nc(-c2ccccc2)n1 [Compound 147],A (Fold activation≧300%),A′ (EC1.5<250 nM)
Cc1cccc(-c2nc(C(=O)Nc3ccccc3-c3nc4cccnc4s3)cc(N3CCOCC3)n2)c1 [Compound 148],B (Fold Activation≧150% and <300%),A (EC1.5≧250 nM and ≦1 uM)
O=C1CN(c2cc(C(=O)Nc3ccccc3-c3nc4cccnc4s3)nc(-c3ccccc3)n2)CCN1 [Compound 149],B (Fold Activation≧150% and <300%),A (EC1.5≧250 nM and ≦1 uM)
CCN1CCN(c2cc(C(=O)Nc3ccccc3-c3nc4cccnc4s3)nc(-c3ccccc3)n2)CC1=O [Compound 150],A (Fold activation≧300%),A (EC1.5≧250 nM and ≦1 uM)
CN1CCN(c2cc(C(=O)Nc3ccccc3-c3nc4cccnc4s3)nc(-c3ccccc3)n2)CC1=O [Compound 151],B (Fold Activation≧150% and <300%),A′ (EC1.5<250 nM)
NCCOc1cc(C(=O)Nc2ccccc2-c2nc3cccnc3s2)nc(-c2ccccc2)n1 [Compound 152],A (Fold activation≧300%),A′ (EC1.5<250 nM)
CN(C)CCCOc1cc(C(=O)Nc2ccccc2-c2nc3cccnc3s2)nc(-c2ccccc2)n1 [Compound 153],A (Fold activation≧300%),A (EC1.5≧250 nM and ≦1 uM)
